Results reported in ChEMBL document CHEMBL1667746, “Synthesis, antimicrobial activity and structure-activity relationship study of N,N-dibenzyl-cyclohexane-1,2-diamine derivatives” (Eur J Med Chem, 2011).
Values after ≈ are worked out from the molar mass of the structure shown. Active and inactive are the calls of the source. No cut-off for these calls is given here.

Experiments:
[1] = tested on: Staphylococcus epidermidis; experiment: Antibacterial activity against Staphylococcus epidermidis after 24 hrs micro dilution assay; format: functional
Staphylococcus aureus = experiment: Antibacterial activity against Staphylococcus aureus after 24 hrs micro dilution assay; format: functional
[2] = Toxicity in human RBC assessed as hemolysis at 1024 ug/ml; format: cell-based, Erythrocyte; conditions: for Activity: erythrocyte; for hemolysis at 1024 ug/ml: red blood cells, read-out: Activity
Escherichia coli = experiment: Antibacterial activity against Escherichia coli after 24 hrs micro dilution assay; format: functional
Pseudomonas aeruginosa = experiment: Antibacterial activity against Pseudomonas aeruginosa after 24 hrs micro dilution assay; format: functional
Candida albicans = experiment: Antifungal activity against Candida albicans MTCC 3017 after 24 hrs micro dilution assay; format: functional
Geotrichum candidum = experiment: Antifungal activity against Geotrichum candidum NCIM 980 after 24 hrs micro dilution assay; format: functional
Nakaseomyces glabratus = experiment: Antifungal activity against Candida glabrata MTCC 3019 after 24 hrs micro dilution assay; format: functional
[3] = Staphylococcus epidermidis, 24 h, read-out: MIC
[4] = Staphylococcus aureus, 24 h, read-out: MIC
[5] = Escherichia coli, 24 h, read-out: MIC
[6] = Pseudomonas aeruginosa, 24 h, read-out: MIC

Structure (SMILES) | MIC [1, 3] [µg/mL] | MIC (Staphylococcus aureus; [4]) [µg/mL] | Activity [2] | MIC (Escherichia coli; [5]) [µg/mL] | MIC (Pseudomonas aeruginosa; [6]) [µg/mL] | hemolysis at 1024 ug/ml [2] [%] | MIC (Candida albicans; MTCC 3017, 24 h) [µg/mL] | MIC (Geotrichum candidum; NCIM 980, 24 h) [µg/mL] | MIC (Nakaseomyces glabratus; MTCC 3019, 24 h) [µg/mL] | MIC [1] | MIC (Staphylococcus aureus) | MIC (Escherichia coli) | MIC (Pseudomonas aeruginosa) | MIC (Nakaseomyces glabratus) | MIC (Candida albicans) | MIC (Geotrichum candidum)
Cl.O=[N+]([O-])c1cccc(CNC2CCCCC2NCc2cccc([N+](=O)[O-])c2)c1 (stereo not given) | 1 | 0.5 | Non-toxic | 0.5 | 0.25 |  |  |  |  |  |  |  |  |  |  | 
CCc1ccc(CNC2CCCCC2NCc2ccc(CC)cc2)cc1.Cl (stereo not given) | 0.008 | 0.008 |  | 0.008 | 0.004 | 38.3 | 0.032 | 0.032 | 0.032 |  |  |  |  |  |  | 
CC(C)(C)c1ccc(CNC2CCCCC2NCc2ccc(C(C)(C)C)cc2)cc1.Cl (stereo not given) | 0.008 | 0.004 | Non-toxic | 0.008 | 0.0006 |  | 0.008 | 0.008 | 0.008 |  |  |  |  |  |  | 
C[C@@H]1[C@H](O)[C@@H](C)/C=C/C=C/C=C/C=C/C=C/C=C/C=C/[C@H](O[C@@H]2O[C@H](C)[C@@H](O)[C@H](N)[C@@H]2O)C[C@@H]2O[C@](O)(C[C@@H](O)C[C@@H](O)[C@H](O)CC[C@@H](O)C[C@@H](O)CC(=O)O[C@H]1C)C[C@H](O)[C@H]2C(=O)O [AMPHOTERICIN B] |  |  |  |  |  |  | 0.3 (≈ 0.325 µM) | 6.25 (≈ 6.76 µM) | 50 (≈ 54.1 µM) |  |  |  |  |  |  | 
COc1ccc(CNC2CCCCC2NCc2ccc(OC)cc2)cc1.Cl (stereo not given) |  |  | Non-toxic |  |  |  |  |  |  | inactive | inactive | inactive | inactive |  |  | 
Brc1cccc(CNC2CCCCC2NCc2cccc(Br)c2)c1.Cl (stereo not given) | 0.065 | 0.008 | Non-toxic | 0.065 | 0.25 |  | 0.125 | 0.065 | 0.25 |  |  |  |  |  |  | 
CCCCc1ccc(CNC2CCCCC2NCc2ccc(CCCC)cc2)cc1.Cl (stereo not given) | 0.008 | 0.008 |  | 0.008 | 0.0005 | 7.68 | 0.008 | 0.008 | 0.008 |  |  |  |  |  |  | 
Cl.Clc1ccc(CNC2CCCCC2NCc2ccc(Cl)cc2Cl)c(Cl)c1 (racemic) | 0.032 | 0.016 |  | 0.032 | 0.016 |  |  |  |  |  |  |  |  |  |  | 
Cl.FC(F)(F)c1ccc(CNC2CCCCC2NCc2ccc(C(F)(F)F)cc2C(F)(F)F)c(C(F)(F)F)c1 (stereo not given) |  |  | Non-toxic |  |  |  |  |  |  | inactive | inactive | inactive | inactive |  |  | 
Cl.Clc1cccc(CN[C@H]2CCCC[C@@H]2NCc2cccc(Cl)c2)c1 (racemic) | 0.032 |  |  | 0.032 | 0.065 |  | 0.125 | 0.032 |  |  | inactive |  |  | inactive |  | 
Cc1ccc(CNC2CCCCC2NCc2ccc(C)cc2)cc1.Cl (stereo not given) | 0.25 | 0.125 |  | 0.25 | 0.125 | 19.2 |  | 0.25 |  |  |  |  |  | inactive | inactive | 
CC(C)c1ccc(CNC2CCCCC2NCc2ccc(C(C)C)cc2)cc1.Cl (stereo not given) | 0.008 | 0.008 |  | 0.004 | 0.0005 | 81.8 | 0.008 |  | 0.016 |  |  |  |  |  |  | inactive
Cl.O=[N+]([O-])c1ccccc1CNC1CCCCC1NCc1ccccc1[N+](=O)[O-] (stereo not given) |  |  | Non-toxic |  |  |  |  |  |  | inactive | inactive | inactive | inactive |  |  | 
Cl.Clc1ccc(CNC2CCCCC2NCc2ccc(Cl)cc2)cc1 (stereo not given) | 0.008 | 0.008 | Non-toxic | 0.008 | 0.008 |  | 0.125 | 0.032 | 0.125 |  |  |  |  |  |  | 
Brc1cccc(CN[C@H]2CCCC[C@@H]2NCc2cccc(Br)c2)c1.Cl | 0.032 | 0.008 | Non-toxic | 0.032 |  |  | 0.125 | 0.065 | 0.065 |  |  |  | 0.008 µg/mL |  |  | 
Brc1ccc(CNC2CCCCC2NCc2ccc(Br)cc2)cc1.Cl (stereo not given) | 0.032 | 0.016 | Non-toxic | 0.25 | 0.032 |  | 0.125 | 0.032 | 0.125 |  |  |  |  |  |  | 
Cl.FC(F)(F)c1cccc(CNC2CCCCC2NCc2cccc(C(F)(F)F)c2)c1 (stereo not given) | 0.032 | 0.016 | Non-toxic | 0.065 | 0.25 |  | 0.125 | 0.125 | 0.25 |  |  |  |  |  |  | 

Structure (SMILES) | MIC [1, 3] [µg/mL] | MIC (Staphylococcus aureus; [4]) [µg/mL] | Activity [2] | MIC (Escherichia coli; [5]) [µg/mL] | MIC (Pseudomonas aeruginosa; [6]) [µg/mL] | hemolysis at 1024 ug/ml [2] [%] | MIC (Candida albicans; MTCC 3017, 24 h) [µg/mL] | MIC (Geotrichum candidum; NCIM 980, 24 h) [µg/mL] | MIC (Nakaseomyces glabratus; MTCC 3019, 24 h) [µg/mL] | MIC [1] | MIC (Staphylococcus aureus) | MIC (Escherichia coli) | MIC (Pseudomonas aeruginosa) | MIC (Nakaseomyces glabratus) | MIC (Candida albicans) | MIC (Geotrichum candidum)
Cl.O=[N+]([O-])c1ccc(CNC2CCCCC2NCc2ccc([N+](=O)[O-])cc2)cc1 (stereo not given) |  |  | Non-toxic |  | 0.125 |  |  | 0.5 |  | inactive | inactive | inactive |  | inactive | inactive | 
Cc1cccc(CNC2CCCCC2NCc2cccc(C)c2)c1.Cl (stereo not given) | 0.25 | 0.032 |  | 0.125 | 0.065 | 4.78 |  | 0.25 |  |  |  |  |  | inactive | inactive | 
Cl.FC(F)(F)c1ccccc1CNC1CCCCC1NCc1ccccc1C(F)(F)F (stereo not given) | 0.065 | 0.065 | Non-toxic | 0.25 | 0.032 |  | 0.5 | 0.5 |  |  |  |  |  | inactive |  | 
Clc1ccccc1CNC1CCCCC1NCc1ccccc1Cl (stereo not given) |  |  |  |  |  | 9.83 |  |  |  | inactive | inactive | inactive | inactive |  |  | 
Cl.FC(F)(F)c1ccc(CNC2CCCCC2NCc2ccc(C(F)(F)F)cc2)cc1 (stereo not given) | 0.032 | 0.008 | Non-toxic | 0.032 | 0.008 |  | 0.125 | 0.065 | 0.125 |  |  |  |  |  |  | 
Cl.FC(F)(F)c1ccc(CN[C@H]2CCCC[C@@H]2NCc2ccc(C(F)(F)F)cc2)cc1 | 0.032 | 0.016 | Non-toxic | 0.032 | 0.008 |  | 0.125 | 0.065 | 0.065 |  |  |  |  |  |  | 
Cl.FC(F)(F)c1ccc(C(F)(F)F)c(CNC2CCCCC2NCc2cc(C(F)(F)F)ccc2C(F)(F)F)c1 (stereo not given) |  |  | Non-toxic |  |  |  |  |  |  | inactive | inactive | inactive | inactive |  |  | 
Cc1ccccc1CNC1CCCCC1NCc1ccccc1C.Cl (stereo not given) | 0.25 | 0.25 | Non-toxic | 0.125 | 0.125 |  |  | 0.25 |  |  |  |  |  | inactive | inactive | 
Brc1ccc(CN[C@H]2CCCC[C@@H]2NCc2ccc(Br)cc2)cc1.Cl | 0.016 | 0.002 | Non-toxic | 0.008 | 0.008 |  | 0.065 | 0.032 | 0.032 |  |  |  |  |  |  | 
c1ccc(CNC2CCCCC2NCc2ccccc2)cc1 (stereo not given) |  |  |  |  |  |  |  |  |  | inactive | inactive | inactive | inactive |  |  | 
Cl.FC(F)(F)c1cccc(CN[C@H]2CCCC[C@@H]2NCc2cccc(C(F)(F)F)c2)c1 | 0.065 | 0.016 |  | 0.032 | 0.008 | 3.7 |  | 0.125 | 0.125 |  |  |  |  |  | inactive | 
Brc1ccccc1CNC1CCCCC1NCc1ccccc1Br.Cl (stereo not given) |  |  | Non-toxic |  |  |  |  |  |  | inactive | inactive | inactive | inactive |  |  | 
Cl.Fc1cccc(CNC2CCCCC2NCc2cccc(F)c2)c1 (stereo not given) | 0.25 |  | Non-toxic | 0.25 | 0.25 |  |  | 0.5 |  |  | inactive |  |  | inactive | inactive | 
Cl.Clc1ccc(CN[C@H]2CCCC[C@@H]2NCc2ccc(Cl)cc2)cc1 | 0.032 | 0.032 |  | 0.032 | 0.032 | 4.8 |  |  |  |  |  |  |  |  |  | 
Cl.Clc1cccc(CNC2CCCCC2NCc2cccc(Cl)c2)c1 (stereo not given) | 0.032 | 0.032 |  | 0.032 | 0.008 | 9.68 | 0.125 | 0.065 | 0.125 |  |  |  |  |  |  | 
CN(C)[C@@H]1C(O)=C(C(N)=O)C(=O)[C@@]2(O)C(O)=C3C(=O)c4c(O)cccc4[C@@](C)(O)[C@H]3C[C@@H]12 [TETRACYCLINE] | 0.002 (≈ 0.0045 µM) | 0.001 (≈ 0.00225 µM) |  | 0.001 (≈ 0.00225 µM) |  |  |  |  |  |  |  |  |  |  |  | 
Brc1cccc(CN[C@H]2CCCC[C@@H]2NCc2cccc(Br)c2)c1.Cl (racemic) |  |  |  |  |  |  |  |  |  | 0.032 µg/mL | 0.008 µg/mL | 0.016 µg/mL | 0.032 µg/mL |  |  | 
